{
  "source": "PubChem BioAssay (NCI)",
  "assay_in_all_cases": "growth of human tumour cells (NCI), 48 h",
  "key": {"786-0 renal": {"test_system": "786-0 renal"}, "A498 renal": {"test_system": "A498 renal"}, "A549 NSCLC": {"test_system": "A549 NSCLC"}, "ACHN renal": {"test_system": "ACHN renal"}, "BT-549 breast": {"test_system": "BT-549 breast"}, "CAKI-1 renal": {"test_system": "CAKI-1 renal"}, "CCRF-CEM leukemia": {"test_system": "CCRF-CEM leukemia"}, "COLO 205 colon": {"test_system": "COLO 205 colon"}, "DU-145 prostate": {"test_system": "DU-145 prostate"}, "HCC-2998 colon": {"test_system": "HCC-2998 colon"}, "HCT-116 colon": {"test_system": "HCT-116 colon"}, "HCT-15 colon": {"test_system": "HCT-15 colon"}, "HL-60(TB) leukemia": {"test_system": "HL-60(TB) leukemia"}, "HOP-62 NSCLC": {"test_system": "HOP-62 NSCLC"}, "HT29 colon": {"test_system": "HT29 colon"}, "IGROV1 ovarian": {"test_system": "IGROV1 ovarian"}, "K-562 leukemia": {"test_system": "K-562 leukemia"}, "KM12 colon": {"test_system": "KM12 colon"}, "M14 melanoma": {"test_system": "M14 melanoma"}, "MALME-3M melanoma": {"test_system": "MALME-3M melanoma"}, "MCF7 breast": {"test_system": "MCF7 breast"}, "MDA-MB-231 breast": {"test_system": "MDA-MB-231 breast"}, "MDA-MB-435": {"test_system": "MDA-MB-435"}, "MDA-N": {"test_system": "MDA-N"}, "MOLT-4 leukemia": {"test_system": "MOLT-4 leukemia"}, "NCI-H226 lung": {"test_system": "NCI-H226 lung"}, "NCI-H460 lung": {"test_system": "NCI-H460 lung"}, "NCI-H522 lung": {"test_system": "NCI-H522 lung"}, "NCI/ADR-RES ovarian": {"test_system": "NCI/ADR-RES ovarian"}, "OVCAR-3 ovarian": {"test_system": "OVCAR-3 ovarian"}, "OVCAR-4 ovarian": {"test_system": "OVCAR-4 ovarian"}, "OVCAR-5 ovarian": {"test_system": "OVCAR-5 ovarian"}, "OVCAR-8 ovarian": {"test_system": "OVCAR-8 ovarian"}, "PC-3 prostate": {"test_system": "PC-3 prostate"}, "RPMI-8226 leukemia": {"test_system": "RPMI-8226 leukemia"}, "RXF 393 renal": {"test_system": "RXF 393 renal"}, "SF-268 CNS": {"test_system": "SF-268 CNS"}, "SF-295 CNS": {"test_system": "SF-295 CNS"}, "SF-539 CNS": {"test_system": "SF-539 CNS"}, "SK-MEL-2 melanoma": {"test_system": "SK-MEL-2 melanoma"}, "SK-MEL-28 melanoma": {"test_system": "SK-MEL-28 melanoma"}, "SK-MEL-5 melanoma": {"test_system": "SK-MEL-5 melanoma"}, "SK-OV-3 ovarian": {"test_system": "SK-OV-3 ovarian"}, "SN12C renal": {"test_system": "SN12C renal"}, "SR leukemia": {"test_system": "SR leukemia"}, "T-47D breast": {"test_system": "T-47D breast"}, "TK-10 renal": {"test_system": "TK-10 renal"}, "U251 CNS": {"test_system": "U251 CNS"}, "UACC-62 melanoma": {"test_system": "UACC-62 melanoma"}, "UO-31 renal": {"test_system": "UO-31 renal"}},
  "note": "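Growth conditions: 96-well plates. Treatment: test compound, 48 hours, 5 concentrations. Analysis: linear interpolation between bracketing concentrations; unreached endpoints set to highest concentration. Definition used: TGI = concentration required for complete inhibition of growth.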",
  "data": [
    {"smiles": "Cc1cc(S(=O)(=O)N/C(=C(\\C#N)C(=O)c2ccc(Cl)cc2)[n+]2ccc(N(C)C)cc2)c([S-])cc1Cl", "values": [
      {"measurement": "TGI", "setting": "786-0 renal", "result": "> 100", "unit": "µM"},
      {"measurement": "TGI", "setting": "A498 renal", "result": 56.6, "unit": "µM"},
      {"measurement": "TGI", "setting": "A549 NSCLC", "result": "> 100", "unit": "µM"},
      {"measurement": "TGI", "setting": "ACHN renal", "result": "> 100", "unit": "µM"},
      {"measurement": "TGI", "setting": "BT-549 breast", "result": "> 100", "unit": "µM"},
      {"measurement": "TGI", "setting": "CAKI-1 renal", "result": "> 100", "unit": "µM"},
      {"measurement": "TGI", "setting": "CCRF-CEM leukemia", "result": "> 100", "unit": "µM"},
      {"measurement": "TGI", "setting": "COLO 205 colon", "result": "> 100", "unit": "µM"},
      {"measurement": "TGI", "setting": "DU-145 prostate", "result": "> 100", "unit": "µM"},
      {"measurement": "TGI", "setting": "HCC-2998 colon", "result": "> 100", "unit": "µM"},
      {"measurement": "TGI", "setting": "HCT-116 colon", "result": 37.3, "unit": "µM"},
      {"measurement": "TGI", "setting": "HCT-15 colon", "result": "> 100", "unit": "µM"},
      {"measurement": "TGI", "setting": "HL-60(TB) leukemia", "result": "> 100", "unit": "µM"},
      {"measurement": "TGI", "setting": "HOP-62 NSCLC", "result": "> 100", "unit": "µM"},
      {"measurement": "TGI", "setting": "HT29 colon", "result": 95.1, "unit": "µM"},
      {"measurement": "TGI", "setting": "IGROV1 ovarian", "result": "> 100", "unit": "µM"},
      {"measurement": "TGI", "setting": "K-562 leukemia", "result": "> 100", "unit": "µM"},
      {"measurement": "TGI", "setting": "KM12 colon", "result": "> 100", "unit": "µM"},
      {"measurement": "TGI", "setting": "M14 melanoma", "result": "> 100", "unit": "µM"},
      {"measurement": "TGI", "setting": "MALME-3M melanoma", "result": 80, "unit": "µM"},
      {"measurement": "TGI", "setting": "MCF7 breast", "result": "> 100", "unit": "µM"},
      {"measurement": "TGI", "setting": "MDA-MB-231 breast", "result": "> 100", "unit": "µM"},
      {"measurement": "TGI", "setting": "MDA-MB-435", "result": "> 100", "unit": "µM"},
      {"measurement": "TGI", "setting": "MDA-N", "result": "> 100", "unit": "µM"},
      {"measurement": "TGI", "setting": "MOLT-4 leukemia", "result": "> 100", "unit": "µM"},
      {"measurement": "TGI", "setting": "NCI-H226 lung", "result": "> 100", "unit": "µM"},
      {"measurement": "TGI", "setting": "NCI-H460 lung", "result": "> 100", "unit": "µM"},
      {"measurement": "TGI", "setting": "NCI-H522 lung", "result": "> 100", "unit": "µM"},
      {"measurement": "TGI", "setting": "NCI/ADR-RES ovarian", "result": "> 100", "unit": "µM"},
      {"measurement": "TGI", "setting": "OVCAR-3 ovarian", "result": "> 100", "unit": "µM"},
      {"measurement": "TGI", "setting": "OVCAR-4 ovarian", "result": "> 100", "unit": "µM"},
      {"measurement": "TGI", "setting": "OVCAR-5 ovarian", "result": "> 100", "unit": "µM"},
      {"measurement": "TGI", "setting": "OVCAR-8 ovarian", "result": "> 100", "unit": "µM"},
      {"measurement": "TGI", "setting": "PC-3 prostate", "result": "> 100", "unit": "µM"},
      {"measurement": "TGI", "setting": "RPMI-8226 leukemia", "result": "> 100", "unit": "µM"},
      {"measurement": "TGI", "setting": "RXF 393 renal", "result": "> 100", "unit": "µM"},
      {"measurement": "TGI", "setting": "SF-268 CNS", "result": "> 100", "unit": "µM"},
      {"measurement": "TGI", "setting": "SF-295 CNS", "result": "> 100", "unit": "µM"},
      {"measurement": "TGI", "setting": "SF-539 CNS", "result": "> 100", "unit": "µM"},
      {"measurement": "TGI", "setting": "SK-MEL-2 melanoma", "result": 83.4, "unit": "µM"},
      {"measurement": "TGI", "setting": "SK-MEL-28 melanoma", "result": "> 100", "unit": "µM"},
      {"measurement": "TGI", "setting": "SK-MEL-5 melanoma", "result": "> 100", "unit": "µM"},
      {"measurement": "TGI", "setting": "SK-OV-3 ovarian", "result": 96.7, "unit": "µM"},
      {"measurement": "TGI", "setting": "SN12C renal", "result": "> 100", "unit": "µM"},
      {"measurement": "TGI", "setting": "SR leukemia", "result": "> 100", "unit": "µM"},
      {"measurement": "TGI", "setting": "T-47D breast", "result": "> 100", "unit": "µM"},
      {"measurement": "TGI", "setting": "TK-10 renal", "result": "> 100", "unit": "µM"},
      {"measurement": "TGI", "setting": "U251 CNS", "result": "> 100", "unit": "µM"},
      {"measurement": "TGI", "setting": "UACC-62 melanoma", "result": "> 100", "unit": "µM"},
      {"measurement": "TGI", "setting": "UO-31 renal", "result": "> 100", "unit": "µM"}
    ]}
  ]
}
